From patent publication EP0342850A1, “Enantiomeric glutaramide diuretic agents” (Pfizer Limited, priority 1988, dated 1989)

Assays:
mice = assay: induction of natriuresis in mice in vivo (procedure of European patent application 0274234); conditions: dose (mg/kg) given
Description: (§1) Appropriate reagents and conditions for the various coupling and deprotection steps, described above, together with procedures for determining the biological activity of the products of formula (II) and appropriate pharmaceutical compositions and dosage ranges for their use are described in European patent application no. 0274234.
(§2) The activity of the racemate and separated enantiomers of the cis-4-{1-[2-carboxy-3-(2-methoxyethoxy)propyl]-1-cyclopentanecarboxamido}-1-cyclohexanecarboxylic acid was assessed by measuring their ability to inhibit the neutral endopeptidase E.C.3.4.24.11 in vitro or to induce natriuresis in mice in vivo following the procedure described in European patent application 0274234.

[1] = system: neutral endopeptidase E.C.3.4.24.11; assay: inhibition of neutral endopeptidase E.C.3.4.24.11 in vitro (procedure of European patent application 0274234); assay type: biochemical; conditions: general statement on the separated enantiomers of the diacid
Description: as §1, §2

Row | Structure (SMILES) | Natriuresis in mouse (i.v.) (mice) | biological activity [1]
1 | COCCOCC(CC1(C(=O)N[C@H]2CC[C@@H](C(=O)O)CC2)CCCC1)C(=O)O (mixture of isomers) [(±) R,S, cis-4-{1-[2-carboxy-3-(2-methoxyethoxy)propyl]-1-cyclopentanecarboxamido}-1-cyclohexanecarboxylic acid] | active at 3 mg/kg | –
2 | COCCOC[C@H](CC1(C(=O)N[C@H]2CC[C@@H](C(=O)O)CC2)CCCC1)C(=O)O (racemic) [(±) S, (S)-cis-4-{1-[2-Carboxy-3-(2-methoxyethoxy)propyl]-1-cyclopentanecarboxamido}-1-cyclohexanecarboxylic acid] | active at 1.5 mg/kg | –
3 | COCCOCC(CC1(C(=O)N[C@H]2CC[C@@H](C(=O)O)CC2)CCCC1)C(=O)O (relative stereo) [(-) R, cis-4-{1-[2-carboxy-3-(2-methoxyethoxy)propyl]-1-cyclopentanecarboxamido}-1-cyclohexanecarboxylic acid] | inactive at 3 mg/kg | virtually inactive
